Values of other authors, collected in patent US20240105341A1, “SYSTEMS AND METHODS FOR ESTIMATING TUMOR GROWTH” (AMGEN INC., priority 2022, published 2024).
Like-named read-outs stand apart in the source and are kept apart here.

Experiments:
[1] = system: metastatic, castration-resistant prostate cancer (mCRPC); conditions: FIRSTANA 2017, phase 3, chemo-naive
[2] = system: metastatic, castration-resistant prostate cancer (mCRPC); conditions: PREVAIL 2014, phase 3, chemo-naive

SMILES	CR (number of complete responders) [1]	Median PFS [1]	PR + CR (number of responders) [1]	CR (number of complete responders) [2]	PR + CR (number of responders) [2]
CO[C@H]1C(=O)[C@]2(C)[C@@H](OC)C[C@H]3OC[C@@]3(OC(C)=O)[C@H]2[C@H](OC(=O)c2ccccc2)[C@]2(O)C[C@H](OC(=O)[C@H](O)[C@@H](NC(=O)OC(C)(C)C)c3ccccc3)C(C)=C1C2(C)C [Caba20]	1	4.4	61		
CC(=O)O[C@@]12CO[C@@H]1C[C@H](O)[C@@]1(C)C(=O)[C@H](O)C3=C(C)[C@@H](OC(=O)[C@H](O)[C@@H](NC(=O)OC(C)(C)C)c4ccccc4)C[C@@](O)([C@@H](OC(=O)c4ccccc4)[C@H]21)C3(C)C [Doce75]	1	5.3	54		
CNC(=O)c1ccc(N2C(=S)N(c3ccc(C#N)c(C(F)(F)F)c3)C(=O)C2(C)C)cc1F [Enza]				78	233
